Test results from US11999742B2, “Substituted pyrrolo[1,2-b]pyridazines as anthelmintics” (BOEHRINGER INGELHEIM VETMEDICA GMBH, priority 2021, dated 2024).

Key:
[1] = tested on: L4 stage larvae of Dirofilaria immitis; assay: Motility of L4 stage Dirofilaria immitis larvae, 3 days, dose response; type: cell-based; settings: 72 h, read-out: EC50, motility of L4 stage D. immitis, three days at 37° C., 5% CO2, vs DMSO control
[2] = tested on: Microfilaria of Dirofilaria immitis; assay: Motility of Dirofilaria immitis microfilariae in microtiter plate, 3 days, dose response; type: cell-based; settings: 72 h, read-out: EC50, motility of D. immitis microfilaria, three days at 37° C., 5% CO2, vs DMSO control
[3] = tested on: Haemonchus contortus L1 larvae; assay: Haemonchus contortus larval development L1 to L3, 4 days, dose response; settings: 96 h, read-out: EC50, development of H. contortus larvae from L1 to L3
From the text: Biological Example 2: Screening Method to Test Activity of Compounds Against Haemonchus contortus

| Structure (SMILES) | EC50 [1] [nM] | EC50 [2] [nM] | EC50 [3] [nM] |
| --- | --- | --- | --- |
| Cc1cc(-c2cc(Cl)cc(Cl)c2)n2ncc(C(=O)N[C@H]3CCOc4ccccc43)c(C(C)C)c12 [Compound A469] | 10 to 100 | 10 to 100 |  |
| Cc1cc2c(C(C)(C)C)c(C(=O)N[C@@H]3CCc4sc(Br)nc43)cnn2c1-c1cc(F)cc(Cl)c1Cl [Compound A536b] | 1000 to 10000 | 1000 to 10000 |  |
| Cc1cc2c(C(C)(C)C)c(C(=O)N[C@H]3CCOc4ccccc43)cnn2c1-c1cccc(Cl)c1Cl [Compound A519] | < 10 | < 10 |  |
| Cc1cc2c(C(C)(C)C)c(C(=O)N[C@H]3CCOc4ccccc43)cnn2c1N1CCC(F)(F)CC1 [Compound A527] | 10 to 100 | 100 to 1000 | 100 to 1000 |
| O=C(N[C@H]1CCOc2ccccc21)c1cnn2c(-c3cc(F)cc(Cl)c3Cl)c(Cl)cc2c1N1CCC1 [Compound A503] | < 10 | < 10 | 10 to 100 |
| CC1(C)CN(c2c(C(=O)N[C@H]3CCOc4ccccc43)cnn3c(-c4cc(Cl)cc(Cl)c4Cl)c(Cl)cc23)C1 [Compound A515] |  |  | 1000 to 10000 |
| Cc1cc2c(C(C)(C)C)c(C(=O)N[C@H]3CCCc4cc(F)ccc43)cnn2c1-c1cc(F)cc(Cl)c1Cl [Compound A538] | 1000 to 10000 | 1000 to 10000 |  |
| Cc1cc2c(C(C)(C)C)c(C(=O)NC3CCCc4ncsc43)cnn2c1-c1cc(F)cc(Cl)c1Cl (centres unmarked) [Compound A533] | 100 to 1000 | 10 to 100 | 100 to 1000 |
| Cc1cc2c(C(C)(C)C)c(C(=O)N[C@H]3CC(C)(C)Oc4ccccc43)cnn2c1-c1cc(F)cc(Cl)c1Cl [Compound A547] | 1000 to 10000 | 1000 to 10000 |  |
| Cc1cc2c(C(C)(C)C)c(C(=O)N[C@H]3CCCc4ccccc43)cnn2c1-c1cc(F)cc(Cl)c1Cl [Compound A557] | < 10 | < 10 | < 10 |
| Cc1cc2c(C(C)(C)C)c(C(=O)N[C@H]3CC4(CCCC4)Oc4ccccc43)cnn2c1-c1cc(F)cc(Cl)c1Cl [Compound A548] | 1000 to 10000 | 1000 to 10000 |  |
| Cc1cc2c(C(C)(C)C)c(C(=O)N[C@H]3CCOc4ccc(F)cc43)cnn2c1-c1cc(F)cc(Cl)c1Cl [Compound A488] | 10 to 100 | < 10 | 10 to 100 |
| Cc1cc2c(C(C)C)c(C(=O)N[C@H]3CCOc4ccccc43)cnn2c1-c1cc(Cl)cc(Cl)c1 [Compound A465, 7-(3,5-dichlorophenyl)-N-[(4S)-3,4-dihydro-2H-1-benzopyran-4-yl]-6-methyl-4-(propan-2-yl)pyrrolo[1,2-b]pyridazine-3-carboxamide] | 10 to 100 | 100 to 1000 | 10 to 100 |
| Cc1cc2c(C(C)(C)C)c(C(=O)N[C@H]3CCCc4cc(Cl)ccc43)cnn2c1-c1cc(F)cc(Cl)c1Cl [Compound A549] | 100 to 1000 | 100 to 1000 | 1000 to 10000 |
| CC(C)c1c(C(=O)N[C@H]2CCOc3ccccc32)cnn2c(-c3cc(Cl)cc(Cl)c3)c(Cl)cc12 [Compound A463] | 10 to 100 | < 10 | 10 to 100 |
| CC(C)(C)c1c(C(=O)N[C@H]2CCc3ccccc32)cnn2c(-c3cc(Cl)cc(Cl)c3)c(Cl)cc12 [Compound A492] |  | 10 to 100 | 100 to 1000 |
| CC(C)c1c(C(=O)N[C@H]2CCOc3ccccc32)cnn2c(-c3cc(Cl)cc(Cl)c3)cc(C(F)(F)F)c12 [Compound A468] |  | 1000 to 10000 |  |
| Cc1cc2c(C(C)(C)C)c(C(=O)N[C@H]3CCOc4ccncc43)cnn2c1-c1cc(F)cc(Cl)c1Cl [Compound A569] |  | < 10 |  |
| Cc1cc2c(C(C)C)c(C(=O)N[C@H]3CCOc4ccccc43)cnn2c1-c1cc(F)cc(Cl)c1Cl [Compound A489] | < 10 | < 10 |  |
| Cc1cc2c(C(C)C)c(NC(=O)[C@H]3CCOc4ccccc43)cnn2c1-c1cc(Cl)cc(Cl)c1 [Compound A462] | 10 to 100 | 10 to 100 | 100 to 1000 |
| Cc1cc2c(N(C)C)c(C(=O)N[C@H]3CCOc4ccccc43)cnn2c1-c1cc(Cl)cc(Cl)c1Cl [Compound A568] |  | < 10 | < 10 |
| Cc1cc2c(C(C)(C)C)c(NC(=O)NC3CCCc4ncsc43)cnn2c1-c1cc(F)cc(Cl)c1Cl (centres unmarked) [Compound A535] |  |  | 1000 to 10000 |
| Cc1cc2c(C(C)(C)C)c(C(=O)N[C@H]3CCc4ccccc43)cnn2c1-c1cc(Cl)cc(Cl)c1 [Compound A480] | 100 to 1000 | 1000 to 10000 |  |
| CN(C)c1c(C(=O)N[C@H]2CCOc3ccccc32)cnn2c(-c3cc(Cl)cc(Cl)c3Cl)c(Cl)cc12 [Compound A473] | < 10 | 10 to 100 | < 10 |
| Cc1cc2c(C(C)(C)C)c(C(=O)N[C@H]3CCOc4ncsc43)cnn2c1-c1cc(F)cc(Cl)c1Cl [Compound A551] | 10 to 100 | 10 to 100 | 10 to 100 |
| Cc1cc2c(C(C)(C)C)c(C(=O)N[C@H]3CCc4cnccc43)cnn2c1-c1cc(F)cc(Cl)c1Cl [Compound A556] | 1000 to 10000 | 1000 to 10000 |  |

| Structure (SMILES) | EC50 [1] [nM] | EC50 [2] [nM] | EC50 [3] [nM] |
| --- | --- | --- | --- |
| Cc1cc2c(C(C)(C)C)c(C(=O)NN3CCOc4ccccc43)cnn2c1-c1cc(Cl)cc(Cl)c1 [Compound A482] | 10 to 100 | 1000 to 10000 | 100 to 1000 |
| Cc1cc2c(C(C)C)c(C(=O)NN3CCOc4ccccc43)cnn2c1-c1cc(Cl)cc(Cl)c1 [Compound A497] |  | 10 to 100 | 10 to 100 |
| Cc1cc2c(C(C)(C)C)c(C(=O)N[C@H]3CCOc4scnc43)cnn2c1-c1cc(F)cc(Cl)c1Cl [Compound A550] | 10 to 100 | 10 to 100 | 10 to 100 |
| Cc1cc2c(C(C)(C)C)c(C(=O)N[C@H]3CCc4scnc43)cnn2c1-c1cc(F)cc(Cl)c1Cl [Compound A540] | 10 to 100 | < 10 | 10 to 100 |
| Cc1cc2c(N3CC(F)(F)C3)c(C(=O)N[C@H]3CCOc4ccccc43)cnn2c1-c1cc(Cl)cc(Cl)c1Cl [Compound A505] | < 10 | < 10 | 10 to 100 |
| Cc1cc2c(N3CC(C)(F)C3)c(C(=O)N[C@H]3CCOc4ccccc43)cnn2c1-c1cc(Cl)cc(Cl)c1Cl [Compound A508] |  | 1000 to 10000 |  |
| CC1(F)CN(c2c(C(=O)N[C@H]3CCOc4ccccc43)cnn3c(-c4cc(F)cc(Cl)c4Cl)c(Cl)cc23)C1 [Compound A514] |  | 1000 to 10000 |  |
| Cc1cc2c(C(C)(C)C)c(C(=O)N[C@H]3CCCc4cnn(C(C)C)c43)cnn2c1-c1cc(F)cc(Cl)c1Cl [Compound A546] | 1000 to 10000 |  |  |
| Cc1cc2c(N3CCOCC3)c(C(=O)N[C@H]3CCOc4ccccc43)cnn2c1-c1cc(F)cc(Cl)c1Cl [Compound A490] | < 10 | < 10 |  |
| Cc1cc2c(N3CCOCC3)c(C(=O)N[C@H]3CCOc4ccccc43)cnn2c1-c1cc(F)cc(F)c1F [Compound A491] | < 10 | < 10 |  |
| Cc1cc2c(C(C)(C)C)c(C(=O)N[C@H]3CCOc4ccccc43)cnn2c1-c1cc(Cl)cc(Cl)c1Cl [Compound A472] |  | < 10 | < 10 |
| CN(C)c1c(C(=O)N[C@H]2CCOc3ccccc32)cnn2c(-c3cc(Cl)cc(Cl)c3)c(Cl)cc12 [Compound A475] |  | 100 to 1000 | 10 to 100 |
| CC(C)c1c(C(=O)N[C@H]2CCOc3ccccc32)cnn2c(-c3cc(Cl)cc(Cl)c3)cc(Cl)c12 [Compound A467] | 100 to 1000 | 100 to 1000 |  |
| CC(C)c1c(C(=S)N[C@H]2CCOc3ccccc32)cnn2c(-c3cc(F)cc(Cl)c3Cl)c(Cl)cc12 [Compound A539, 6-chloro-7-(2,3-dichloro-5-fluorophenyl)-N-[(4S)-3,4-dihydro-2H-1-benzopyran-4-yl]-4-(propan-2-yl)pyrrolo[1,2-b]pyridazine-3-carbothioamide] | 100 to 1000 | 10 to 100 |  |
| Cc1cc2c(N3CC(C)(C)C3)c(C(=O)N[C@H]3CCOc4ccccc43)cnn2c1-c1cc(F)cc(Cl)c1Cl [Compound A564] | 1000 to 10000 | 1000 to 10000 |  |
| Cc1cc2c(C(C)(C)C)c(C(=O)N[C@H]3CCOc4ccccc43)cnn2c1N1CCOCC1 [Compound A529] | 100 to 1000 | 1000 to 10000 |  |
| CC(C)c1c(C(=O)N[C@H]2CCOc3ccccc32)cnn2c(-c3cc(Cl)cc(Cl)c3)ccc12 [Compound A470] |  | 1000 to 10000 |  |
| CC1(F)CN(c2c(C(=O)N[C@H]3CCOc4ccccc43)cnn3c(-c4cc(Cl)cc(Cl)c4Cl)c(Cl)cc23)C1 [Compound A509] |  | 100 to 1000 |  |
| Cc1cc2c(N3CC(C)(C)C3)c(C(=O)N[C@H]3CCOc4ccccc43)cnn2c1-c1cc(F)cc(Cl)c1Cl [Compound A512] |  |  | 1000 to 10000 |
| Cc1cc2c(C(C)(C)C)c(C(=O)N[C@H]3CCn4cncc43)cnn2c1-c1cc(F)cc(Cl)c1Cl [Compound A552] | 1000 to 10000 | 1000 to 10000 |  |
| Cc1cc2c(C(C)C)c(C(=O)Nc3cccc4ccccc34)cnn2c1-c1cc(Cl)cc(Cl)c1 [Compound A521] | 100 to 1000 |  |  |
| Cc1cc2c(C(C)(C)C)c(C(=O)N[C@H]3CCOc4ccccc43)cnn2c1-c1cc(Cl)cc(Cl)c1 [Compound A464] | < 10 | < 10 |  |
| Cc1cc2c(C(C)(C)C)c(C(=O)NC3CCCc4sccc43)cnn2c1-c1cc(F)cc(Cl)c1Cl (centres unmarked) [Compound A537] | 10 to 100 | < 10 |  |
| Cc1cc2c(C(C)(C)C)c(C(=O)N[C@H]3COc4ccccc43)cnn2c1-c1cc(F)cc(Cl)c1Cl [Compound A545] | 1000 to 10000 |  |  |
| Cc1cc2c(C(C)(C)C)c(C(=O)N(C)[C@H]3CCOc4ccccc43)cnn2c1-c1cc(F)cc(Cl)c1Cl [Compound A543, 4-tert-butyl-7-(2,3-dichloro-5-fluorophenyl)-N-[(4S)-3,4-dihydro-2H-1-benzopyran-4-yl]-N,6-dimethylpyrrolo[1,2-b]pyridazine-3-carboxamide] | 1000 to 10000 | 1000 to 10000 |  |
| Cc1cc2c(N3CC(C)(F)C3)c(C(=O)N[C@H]3CCOc4ccccc43)cnn2c1-c1cc(F)cc(Cl)c1Cl [Compound A562] | 1000 to 10000 | 1000 to 10000 |  |
